Data from patent publication US20150105252A1, “SUBSTITUTED PYRAZOLES AS HERBICIDES” (E I DU PONT DE NEMOURS AND COMPANY, priority 2013, published 2015).

Key:
foxtail, giant [1] = test: Test A postemergence; format: in vivo, Setaria faberii
Method in brief: (§1)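 Pre- and postemergence greenhouse test; loam+sand; cpd in non-phytotox. solvent/surfactant; post at 1–2 leaf, 2–10 cm; visual score ~10 d, 0 = none, 100 = complete control.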

corn [2] = test: Test A preemergence; format: in vivo, Zea mays; details: preemergence
Method in brief: as §1

barnyardgrass [3] = test: Test A postemergence; format: in vivo, Echinochloa crus-galli
Method in brief: as §1

pigweed [4] = test: Test A preemergence; format: in vivo, Amaranthus retroflexus; details: preemergence
Method in brief: as §1

wheat [5] = test: Test A preemergence; format: in vivo, Triticum aestivum; details: preemergence
Method in brief: as §1

barnyardgrass [6] = test: Test B flood; format: in vivo, Echinochloa crus-galli; details: 250 g ai/ha, visual rating on 0 to 100 scale (0 no effect, 100 complete control), 13 to 15 days
Method in brief: (§2)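 Two-leaf-stage plants, pots flooded (3 cm above soil) and treated through the water, which stayed at that depth. After 13–15 days in greenhouse conditions, visual assessment versus controls: 0 is no effect, 100 complete control, dash means no result.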

morningglory [7] = test: Test A postemergence; format: in vivo, Ipomoea spp.
Method in brief: as §1

velvetleaf [8] = test: Test A preemergence; format: in vivo, Abutilon theophrasti; details: preemergence
Method in brief: as §1

rice = test: Test B flood; format: in vivo, Oryza sativa; details: 250 g ai/ha, visual rating on 0 to 100 scale (0 no effect, 100 complete control), 13 to 15 days
Method in brief: as §2

pigweed [9] = test: Test A postemergence; format: in vivo, Amaranthus retroflexus
Method in brief: as §1

barnyardgrass [10] = test: Test A preemergence; format: in vivo, Echinochloa crus-galli; details: preemergence
Method in brief: as §1

crabgrass, large [11] = test: Test A preemergence; format: in vivo, Digitaria sanguinalis; details: preemergence
Method in brief: as §1

corn [12] = test: Test A postemergence; format: in vivo, Zea mays
Method in brief: as §1

wheat [13] = test: Test A postemergence; format: in vivo, Triticum aestivum
Method in brief: as §1

foxtail, giant [14] = test: Test A preemergence; format: in vivo, Setaria faberii; details: preemergence
Method in brief: as §1

morningglory [15] = test: Test A preemergence; format: in vivo, Ipomoea spp.; details: preemergence
Method in brief: as §1

sedge, umbrella = test: Test B flood; format: in vivo, Cyperus difformis; details: 250 g ai/ha, visual rating on 0 to 100 scale (0 no effect, 100 complete control), 13 to 15 days
Method in brief: as §2

ducksalad = test: Test B flood; format: in vivo, Heteranthera limosa; details: 250 g ai/ha, visual rating on 0 to 100 scale (0 no effect, 100 complete control), 13 to 15 days
Method in brief: as §2

velvetleaf [16] = test: Test A postemergence; format: in vivo, Abutilon theophrasti
Method in brief: as §1

crabgrass, large [17] = test: Test A postemergence; format: in vivo, Digitaria sanguinalis
Method in brief: as §1

[18] = Postemergence, 500 g ai/ha, visual rating after approx. 10 days, 0 to 100 scale (0 no effect, 100 complete control)
[19] = postemergence, 125 g ai/ha, about 10 days, visual rating on 0 to 100 scale (0 no effect, 100 complete control)
[20] = 125 g ai/ha, visual injury, 0 to 100 scale, approx. 10 days
[21] = 500 g ai/ha, visual injury after approx. 10 days, 0 to 100 scale (0 no effect, 100 complete control)
[22] = Postemergence, 500 g ai/ha, 0 to 100 scale (0 no effect, 100 complete control)

## CCc1cc(C(=O)NC2CC2)nn1Cc1cc(C(F)(F)F)nn1CC [Compound 118]
foxtail, giant [1]; [18]
  Foxtail, Giant plant response rating: 70
foxtail, giant [1]; [19]
  Foxtail, Giant plant response rating: 10
Corn [2]; [20]
  Corn plant response rating: 0
Corn [2]; [21]
  Corn plant response rating: 50
Barnyardgrass [3]; [18]
  Barnyardgrass plant response rating: 80
Barnyardgrass [3]; [19]
  Barnyardgrass plant response rating: 30
Pigweed [4]; [20]
  Pigweed plant response rating: 100
Pigweed [4]; [21]
  Pigweed plant response rating: 100
Wheat [5]; [20]
  Wheat plant response rating: 0
Wheat [5]; [21]
  Wheat plant response rating: 30
Barnyardgrass [6]
  Plant response rating, Barnyardgrass: 0
Morningglory [7]; [18]
  Morningglory plant response rating: 90
Morningglory [7]; [19]
  Morningglory plant response rating: 70
Velvetleaf [8]; [20]
  Velvetleaf plant response rating: 0
Velvetleaf [8]; [21]
  Velvetleaf plant response rating: 80
rice
  Plant response rating, Rice: 0
Pigweed [9]; [18]
  Pigweed plant response rating: 100
Pigweed [9]; [19]
  Pigweed plant response rating: 80
Barnyardgrass [10]; [20]
  Barnyardgrass plant response rating: 40
Barnyardgrass [10]; [21]
  Barnyardgrass plant response rating: 100
crabgrass, large [11]; [20]
  Crabgrass, Large plant response rating: 100
crabgrass, large [11]; [21]
  Crabgrass, Large plant response rating: 100
Corn [12]; [18]
  Corn plant response rating: 50
Corn [12]; [19]
  Corn plant response rating: 20
Wheat [13]; [18]
  Wheat plant response rating: 40
Wheat [13]; [19]
  Wheat plant response rating: 0
foxtail, giant [14]; [20]
  Foxtail, Giant plant response rating: 70
foxtail, giant [14]; [21]
  Foxtail, Giant plant response rating: 90
Morningglory [15]; [20]
  Morningglory plant response rating: 70
Morningglory [15]; [21]
  Morningglory plant response rating: 100
sedge, umbrella
  Plant response rating, Sedge, Umbrella: 85
ducksalad
  Plant response rating, Ducksalad: 30
Velvetleaf [16]; [18]
  Velvetleaf plant response rating: 80
Velvetleaf [16]; [19]
  Velvetleaf plant response rating: 50
crabgrass, large [17]; [18]
  Crabgrass, Large plant response rating: 90
crabgrass, large [17]; [19]
  Crabgrass, Large plant response rating: 40

## CCc1cc(C(=O)NCC(F)(F)F)nn1Cc1cc(C(F)(F)F)nn1CC [Compound 119]
foxtail, giant [1]; [22]
  Foxtail, Giant plant response rating: 50
foxtail, giant [1]; [19]
  Foxtail, Giant plant response rating: 20
Corn [2]; [20]
  Corn plant response rating: 0
Corn [2]; [21]
  Corn plant response rating: 30
Barnyardgrass [3]; [22]
  Barnyardgrass plant response rating: 60
Barnyardgrass [3]; [19]
  Barnyardgrass plant response rating: 10
Pigweed [4]; [20]
  Pigweed plant response rating: 80
Pigweed [4]; [21]
  Pigweed plant response rating: 100
Wheat [5]; [20]
  Wheat plant response rating: 0
Wheat [5]; [21]
  Wheat plant response rating: 20
Barnyardgrass [6]
  Plant response rating, Barnyardgrass: 0
Morningglory [7]; [22]
  Morningglory plant response rating: 100
Morningglory [7]; [19]
  Morningglory plant response rating: 90
Velvetleaf [8]; [20]
  Velvetleaf plant response rating: 0
Velvetleaf [8]; [21]
  Velvetleaf plant response rating: 30
rice
  Plant response rating, Rice: 0
Pigweed [9]; [22]
  Pigweed plant response rating: 90
Pigweed [9]; [19]
  Pigweed plant response rating: 60
Barnyardgrass [10]; [20]
  Barnyardgrass plant response rating: 0
Barnyardgrass [10]; [21]
  Barnyardgrass plant response rating: 70
crabgrass, large [11]; [20]
  Crabgrass, Large plant response rating: 70
crabgrass, large [11]; [21]
  Crabgrass, Large plant response rating: 100
Corn [12]; [22]
  Corn plant response rating: 50
Corn [12]; [19]
  Corn plant response rating: 0
Wheat [13]; [22]
  Wheat plant response rating: 10
Wheat [13]; [19]
  Wheat plant response rating: 0
foxtail, giant [14]; [20]
  Foxtail, Giant plant response rating: 20
foxtail, giant [14]; [21]
  Foxtail, Giant plant response rating: 80
Morningglory [15]; [20]
  Morningglory plant response rating: 20
Morningglory [15]; [21]
  Morningglory plant response rating: 60
sedge, umbrella
  Plant response rating, Sedge, Umbrella: 75
ducksalad
  Plant response rating, Ducksalad: 40
Velvetleaf [16]; [22]
  Velvetleaf plant response rating: 70
Velvetleaf [16]; [19]
  Velvetleaf plant response rating: 50
crabgrass, large [17]; [22]
  Crabgrass, Large plant response rating: 60
crabgrass, large [17]; [19]
  Crabgrass, Large plant response rating: 20

## CCONC(=O)c1cc(CC)n(Cc2cc(C(F)(F)F)nn2CC)n1 [Compound 121]
foxtail, giant [1]; [22]
  Foxtail, Giant plant response rating: 80
foxtail, giant [1]; [19]
  Foxtail, Giant plant response rating: 50
Corn [2]; [20]
  Corn plant response rating: 30
Corn [2]; [21]
  Corn plant response rating: 90
Barnyardgrass [3]; [22]
  Barnyardgrass plant response rating: 90
Barnyardgrass [3]; [19]
  Barnyardgrass plant response rating: 90
Pigweed [4]; [20]
  Pigweed plant response rating: 100
Pigweed [4]; [21]
  Pigweed plant response rating: 100
Wheat [5]; [20]
  Wheat plant response rating: 10
Wheat [5]; [21]
  Wheat plant response rating: 80
Barnyardgrass [6]
  Plant response rating, Barnyardgrass: 15
Morningglory [7]; [22]
  Morningglory plant response rating: 100
Morningglory [7]; [19]
  Morningglory plant response rating: 90
Velvetleaf [8]; [20]
  Velvetleaf plant response rating: 20
Velvetleaf [8]; [21]
  Velvetleaf plant response rating: 100
rice
  Plant response rating, Rice: 20
Pigweed [9]; [22]
  Pigweed plant response rating: 100
Pigweed [9]; [19]
  Pigweed plant response rating: 90
Barnyardgrass [10]; [20]
  Barnyardgrass plant response rating: 70
Barnyardgrass [10]; [21]
  Barnyardgrass plant response rating: 100
crabgrass, large [11]; [20]
  Crabgrass, Large plant response rating: 90
crabgrass, large [11]; [21]
  Crabgrass, Large plant response rating: 100
Corn [12]; [22]
  Corn plant response rating: 70
Corn [12]; [19]
  Corn plant response rating: 40
Wheat [13]; [22]
  Wheat plant response rating: 60
Wheat [13]; [19]
  Wheat plant response rating: 0
foxtail, giant [14]; [20]
  Foxtail, Giant plant response rating: 60
foxtail, giant [14]; [21]
  Foxtail, Giant plant response rating: 80
Morningglory [15]; [20]
  Morningglory plant response rating: 100
Morningglory [15]; [21]
  Morningglory plant response rating: 100
sedge, umbrella
  Plant response rating, Sedge, Umbrella: 75
ducksalad
  Plant response rating, Ducksalad: 75
Velvetleaf [16]; [22]
  Velvetleaf plant response rating: 100
Velvetleaf [16]; [19]
  Velvetleaf plant response rating: 60
crabgrass, large [17]; [22]
  Crabgrass, Large plant response rating: 90
crabgrass, large [17]; [19]
  Crabgrass, Large plant response rating: 70
